# From patent US10525139B2, “Folate-conjugated molecules for delivery of toxic small molecule inhibitors to cancer cells and methods of use” (priority 2014, dated 2020)
# Entries after “also recorded” stand apart in the source; their conditions may differ.
# Assays:
# [1] = test system: NOTCH1 L1601P ΔPEST T-ALL; assay: Syngeneic T-ALL mouse model carrying NOTCH1 L1601P ΔPEST; type: in vivo
# Procedure: Viability data is represented as percentage relative to vehicle treatment and errors bars denote mean±SD of 3 replicates. Statistical significance of treated vs. vehicle (DMSO) samples (***P≤0.01; ***P≤0.001) was determined by one-way ANOVA with Bonferroni's correction for multiple comparison testing. […] The immunoblot contains cell lysates stained with anti-ICN1 antibody (Val1744) after treatment with the 10 μM of JQ-FT for 24 hours in vitro. GAPDH was used as a loading control ICN1 loss was quantified and bar graph (panel e) corresponds to the results of the quantification of three independent experiments. Statistical significance of treated vs. vehicle (DMSO) samples (*P≤0.05) was determined by Student's t-test. Expression of indicated NOTCH1 target genes HesI (panel d) and Dtx1 (panel e) in murine NOTCH1 L1601P ΔPEST expressing leukemia lymphoblasts treated with 10 μM JQ-FT for 24 hours was determined by qRT-PCR. Error bars indicate the mean±SD of 3 replicates. Data were analyzed using the ΔΔCT method and plotted as a percentage relative to the control gene Gapdh. Statistical significance for treated vs. vehicle (DMSO) (*P≤0.05) was determined by Student's t-test. […] The spleen and the liver of all mice were examined; representative results for one control animal and one JQ-FT-treated animal are shown. Formalin-fixed, paraffin-embedded tissue sections were stained using the hematoxylin and eosin stain (H & E) method. […] Anti-leukemic activity of JQ-FT was assessed by measuring spleen weight upon 5 days of JQ-FT treatment (60 mg/kg I.P) or vehicle (65% D5W+30% PEG-400+5% Tween-80only). […] Statistical significance for treated vs. vehicle (*P≤0.05) was determined by non-parametric t-test (Mann-Whitney). […] Error bars indicate mean±SD of 4 replicates (of the 4 animals of each group). Statistical significance for treated vs. vehicle (*P≤0.05) was determined by non-parametric t-test (Mann-Whitney). […] The immunoblot contains splenic cell lysates stained with anti-ICN1 antibody (Val1744) after treatment with the 60 mg/Kg of JQ-FT for 5 days. GAPDH was used as a loading control. ICN1 loss was quantified and bar graph (j) corresponds to the results of the quantification. Statistical significance for treated vs. vehicle (*P≤0.05) was determined by Student's t-test.
# In vitro studies provide valuable mechanistic insights but may not recapitulate tumor micro-environment and metabolic conditions in vivo. Indeed, a significant limitation of research on folate-conjugate drugs is the inconsistency between free folate concentrations (and other middle metabolites) in culture conditions in vitro versus in vivo. High levels of free folic acid in the sera may block the binding and uptake of JQ-FT in FR2-positive T-ALL compromising the anti-NOTCH1 leukemia effect observed in vitro. To explore the therapeutic efficacy of JQ-FT in vivo, we studied effects on a syngeneic T-ALL mouse model carrying a NOTCH1 L1601P ΔPEST, a common mutation observed in the human disease. First, leukemia cells obtained from this model were treated with JQ-FT for 24 hours in vitro.
# Though the JQ-FT conjugate has not, as yet, been optimized for pharmacologic properties, we are eager to explore the utility of the compound as an in vivo chemical probe, while assessing putative tolerability of folate-conjugated thapsigargins. We first established the maximal tolerated dose (MTD) of JQ-FT as 60 mg/kg/day in mice, as administered by daily intraperitoneal injection. […]
# panel of cell lines = assay: Apoptosis luminescence assay (Caspase) in a panel of cell lines; type: cell-based; conditions: 384-well plates, 72 hours
# Procedure: Cells were grown in 384-well plates and treated for 72 hours with the indicated dose of Folate-Thap. Apoptosis was measured using a luminescence assay developed by Promega.
# [2] = LCMS analysis of cell lysate and media; type: in vitro ADME; conditions: 24 h treatment with FT
# Procedure: In order to validate the delivery of the Thap-OH, LCMS analysis of the cell lysate and the media was used to detect the presence of both Folate-Thap (FT) and Thap-OH. […] To directly visualize the folate delivery of a small molecule, folic acid derivatives with appended fluorophores were designed. Both Folate-FITC, suitable for flow cytometry studies, and Folate-TMARA, suitable for high-throughput fluorescence plate readers, were evaluated in vitro to determine the delivery mechanism.
# NOTCH1 target genes = assay: NOTCH1 target gene expression by RT-PCR in T-ALL cell lines; type: cell-based, human; conditions: T-ALL cells (ALL/SIL, DND41), 24 hours
# Procedure: Errors bars denote mean±SD of 4 replicates. […] The blot was stained with an antibody against the C-terminus of NOTCH1 that recognizes both the furin-processed NOTCH1 transmembrane subunit (TM) and the unprocessed NOTCH1 precursor (FL). The immunoblot was also stained with anti-ICN1 antibody. GAPDH was used as a loading control. […] Error bars indicate the mean±SD of 4 replicates. Data were analyzed using the ΔΔCT method and plotted as a percentage relative to the control gene RPL13A. Statistical significance among groups for treated vs. vehicle (DMSO) samples (***P≤0.0001) was determined by one-way ANOVA with Bonferroni's correction for multiple comparison testing. […] The blot was stained with an antibody against the C-terminus of NOTCH1 (N1) that recognizes both the furin-processed NOTCH1 transmembrane subunit (TM). GAPDH was used as a loading control. […] Cells were probed with an anti-NOTCH1 antibody (green) and nuclei were counterstained with DAPI. […] Error bars indicate the mean±SD of 4 replicates. Data were analyzed using the ΔΔCT method and plotted as a percentage relative to the control gene RPL13A. Statistical significance (***P≤0.001. ****P≤0.0001) for treated vs. vehicle (DMSO) was determined by one-way ANOVA with Bonferroni's correction for multiple comparison testing. […]
# [3] = test system: murine NOTCH1 L1601P ΔPEST expressing leukemia lymphoblasts; assay: Ex vivo treatment of murine NOTCH1 L1601P ΔPEST leukemia lymphoblasts; type: cell-based, mouse
# Procedure: Viability data is represented as percentage relative to vehicle treatment and errors bars denote mean±SD of 3 replicates. Statistical significance of treated vs. vehicle (DMSO) samples (***P≤0.01; ***P≤0.001) was determined by one-way ANOVA with Bonferroni's correction for multiple comparison testing. […] The immunoblot contains cell lysates stained with anti-ICN1 antibody (Val1744) after treatment with the 10 μM of JQ-FT for 24 hours in vitro. GAPDH was used as a loading control ICN1 loss was quantified and bar graph (panel e) corresponds to the results of the quantification of three independent experiments. Statistical significance of treated vs. vehicle (DMSO) samples (*P≤0.05) was determined by Student's t-test. Expression of indicated NOTCH1 target genes HesI (panel d) and Dtx1 (panel e) in murine NOTCH1 L1601P ΔPEST expressing leukemia lymphoblasts treated with 10 μM JQ-FT for 24 hours was determined by qRT-PCR. Error bars indicate the mean±SD of 3 replicates. Data were analyzed using the ΔΔCT method and plotted as a percentage relative to the control gene Gapdh. Statistical significance for treated vs. vehicle (DMSO) (*P≤0.05) was determined by Student's t-test. […] The spleen and the liver of all mice were examined; representative results for one control animal and one JQ-FT-treated animal are shown. Formalin-fixed, paraffin-embedded tissue sections were stained using the hematoxylin and eosin stain (H & E) method. […] Anti-leukemic activity of JQ-FT was assessed by measuring spleen weight upon 5 days of JQ-FT treatment (60 mg/kg I.P) or vehicle (65% D5W+30% PEG-400+5% Tween-80only). […] Statistical significance for treated vs. vehicle (*P≤0.05) was determined by non-parametric t-test (Mann-Whitney). […] Statistical significance for treated vs. vehicle (*P≤0.05) was determined by non-parametric t-test (Mann-Whitney). […] ICN1 loss was quantified and bar graph (j) corresponds to the results of the quantification. Statistical significance for treated vs. vehicle (*P≤0.05) was determined by Student's t-test. […]
smiles,measurement,setting,value
C/C=C(/C)C(=O)O[C@H]1C(C)=C2C([C@@H]1OC(=O)CCCCCCC)[C@@](C)(OC(C)=O)C[C@H](OC(=O)CC[C@H](NC(=O)c1ccc(NCc3cnc4nc(N)[nH]c(=O)c4n3)cc1)C(=O)O)[C@@]1(O)[C@H]2OC(=O)[C@@]1(C)O (some centres unmarked) [JQ-FT],bone marrow infiltration by T-ALL (GFP+ leukemia cells),"[1]; 60 mg/kg IP daily, five days",markedly inhibited
same,leukemic infiltration in spleen and liver (histology),"[1]; 60 mg/kg IP daily, five days",decrease of leukemic infiltration in spleen and liver; also recorded: Growth suppression of lymphoblasts
same,spleen weight,"[1]; 60 mg/kg IP daily, five days",reduction in spleen weight
same,tumor growth,"[1]; 60 mg/kg IP daily, five days",evident decrease in tumor growth
same,ICN1 expression in T-ALL cells from treated animals,"[1]; 60 mg/kg, 5 days, splenic cell lysates, vs vehicle",reduced ICN1 expression
same,apoptosis as measured by Caspase,panel of cell lines,apoptotic effect
same,detection of the conjugate in cell culture media and cell lysate,[2],not detected in either cell culture media (24 h treatment) or cell lysate
same,NOTCH1 target gene expression,NOTCH1 target genes,suppression of NOTCH1 target genes
same,ICN1 expression in murine leukemia cells,"[3]; 10 μM JQ-FT, 24 hours",diminished
same,transcription of NOTCH1 targets Hes1 and Dtx1,"[3]; 10 μM JQ-FT, 24 hours",diminished
same,proliferation of murine leukemia cells,[3]; ex vivo treatment with JQ-FT,diminished the proliferation
